Data as given in US5432260A, “High affinity mannose receptor ligands” (Washington University, priority 1991, dated 1995).

Target: T1, purified mannose receptor (Homo sapiens, UniProt P22897)
T1 construct: purified mannose receptor (Lennartz, M. R. et al., J Biol Chem (1987) 262:9942-9944 (supra)) is added; from tissue
T1 sequence (P22897 19-1456): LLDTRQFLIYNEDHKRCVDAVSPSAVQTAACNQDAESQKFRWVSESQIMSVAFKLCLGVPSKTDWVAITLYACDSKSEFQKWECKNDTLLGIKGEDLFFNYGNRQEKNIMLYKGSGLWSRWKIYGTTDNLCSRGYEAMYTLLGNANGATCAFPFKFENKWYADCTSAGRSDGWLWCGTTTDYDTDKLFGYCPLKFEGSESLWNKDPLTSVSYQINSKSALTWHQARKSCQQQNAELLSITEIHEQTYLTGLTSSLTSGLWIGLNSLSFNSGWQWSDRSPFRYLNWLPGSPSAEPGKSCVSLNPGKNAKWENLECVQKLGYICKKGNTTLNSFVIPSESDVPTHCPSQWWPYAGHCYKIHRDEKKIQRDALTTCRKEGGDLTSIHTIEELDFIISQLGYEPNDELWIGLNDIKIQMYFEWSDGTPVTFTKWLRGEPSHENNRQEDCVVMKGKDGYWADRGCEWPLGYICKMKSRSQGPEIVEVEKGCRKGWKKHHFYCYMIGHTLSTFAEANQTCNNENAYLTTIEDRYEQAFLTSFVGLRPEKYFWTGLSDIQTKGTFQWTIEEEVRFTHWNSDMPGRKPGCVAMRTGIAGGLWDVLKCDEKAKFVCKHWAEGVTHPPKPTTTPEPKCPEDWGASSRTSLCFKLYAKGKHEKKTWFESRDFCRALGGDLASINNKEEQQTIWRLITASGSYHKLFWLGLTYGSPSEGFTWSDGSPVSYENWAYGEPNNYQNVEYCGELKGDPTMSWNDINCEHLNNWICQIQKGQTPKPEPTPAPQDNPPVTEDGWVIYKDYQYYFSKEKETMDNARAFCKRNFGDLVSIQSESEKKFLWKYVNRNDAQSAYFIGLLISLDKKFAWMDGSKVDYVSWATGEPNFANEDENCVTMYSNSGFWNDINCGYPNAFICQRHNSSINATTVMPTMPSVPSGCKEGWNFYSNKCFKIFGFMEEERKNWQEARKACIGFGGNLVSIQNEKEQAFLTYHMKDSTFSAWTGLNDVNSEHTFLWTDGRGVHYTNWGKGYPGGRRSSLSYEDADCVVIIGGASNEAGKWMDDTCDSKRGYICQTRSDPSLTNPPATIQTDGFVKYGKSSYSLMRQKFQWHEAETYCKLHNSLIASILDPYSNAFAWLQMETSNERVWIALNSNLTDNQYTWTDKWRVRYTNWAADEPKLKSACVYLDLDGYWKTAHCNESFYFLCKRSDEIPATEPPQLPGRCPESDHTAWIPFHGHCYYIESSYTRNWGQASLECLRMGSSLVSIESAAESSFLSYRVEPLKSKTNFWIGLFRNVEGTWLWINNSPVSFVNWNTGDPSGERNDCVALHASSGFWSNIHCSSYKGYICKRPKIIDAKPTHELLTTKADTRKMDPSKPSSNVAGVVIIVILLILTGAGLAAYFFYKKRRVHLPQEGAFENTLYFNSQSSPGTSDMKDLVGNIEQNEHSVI
Assay: Competition of 125I-mannose-BSA binding to isolated mannose receptor on beads
Details: for IC50: 125I-mannose-BSA 2 nM, 37° C., 15 minutes, read-out: IC50 (concentration effecting 50% inhibition of 125I-mannose-BSA binding to mannose receptor)
Protocol: The assay measures the ability of the test compound to inhibit the binding of ^125 I-mannose-BSA, prepared as described, to isolated mannose receptor. To prepare solid supported receptor protein A-sepharose (IgG-SORB) is incubated with rabbit anti-human mannose receptor antiserum for 20 minutes at room temperature. The beads are then washed by sedimentation 3 times in Tris-buffered saline containing 1% Triton X-100, 1% BSA and 15 mM CaCl2 (assay buffer). The beads are then suspended in an assay buffer and purified mannose receptor (Lennartz, M. R. et al., J Biol Chem (1987) 262:9942-9944 (supra)) is added, followed by incubation for 30 minutes at 37° C. The beads are washed again three times to remove unbound receptor.
In the assay, the receptor-linked beads are resuspended in a total volume of 100 μL assay buffer containing 0.1 μCi ^125 I-mannose-BSA (2 nM) prepared according to (Stahl, P. et al., Cell (1980) (supra)) with and without test compound. Following incubation at 37° C. for 15 minutes, the beads are diluted in ice cold buffer and washed three times in the same assay buffer as the dissociation or receptor/ligand at 4° C. is quite slow. The cpm of ^125 I-mannose-BSA remaining in the […] is determined, and the percent inhibition of test compound at various concentrations calculated. The IC50 is then the concentration which effects a 50% inhibition in binding. Nonspecific binding of ligand to beads is determined by adding excess yeast mannan to parallel assays and accounted for in the calculations.
The ^125 I-mannose-BSA used in the assay binds to receptor beads with a Kd of 2 nM as determined in the foregoing assay using unlabeled mannose-BSA as test compound.
The competition was conducted as set forth above, using as test compounds, mannose, oligosaccharides containing 3, 5, 7, 9 or 13 mannose residues linked α1, 4 (Man9 and Man13, respectively) and two proteins known to contain mannose residues, β-glucuronidase and invertase. ^125 I-mannose-BSA at 2 nM was used in the assay and mannose-BSA was used in a control. Varying concentrations of test compound were used to determine the IC50 for each material.
The compounds synthesized in Example 2 were tested in the assay system described in Example 1 above under the conditions therein set forth. FIGS. 2 and 3 show the results. The IC50 (concentration of test compound which effects 50% inhibition of binding of labeled mannose-BSA under the conditions of the assay) can be read from the figures.

fold less effective than the mannose oligosaccharides in inhibiting 125I-mannose-BSA binding (relative to Man9/Man13, FIG. 1)	ability to inhibit the binding of 125I-mannosyl-BSA after digestion with pronase (digested with pronase)	Molecule	IC50 [µM]
at least 1,000 fold	–	O=C[C@@H](O)[C@@H](O)[C@H](O)[C@H](O)CO [Mannose, mannose]	–
–	destroyed	Invertase: protein known to contain mannose residues	0.01 to 0.1
–	–	Man9	~20
